According to patent publication US11752125B2, “Anti-neuroinflammatory and protective compounds in Achillea fragrantissima” (THE STATE OF ISRAEL MINISTRY OF AGRICULTURE & RURAL …, priority 2013, dated 2023):

Assays:
astrocytes = experiment: Cytotoxicity of the compound by itself to astrocytes (LDH); type: cell-based; settings: all concentrations tested, 20 h
Experimental: Astrocytes were re-plated at 24-well poly-D-lysine-coated plastic plates at a density of 1×10^5/well, in DMEM w/o Phenol Red containing 2% FBS, 2 mM glutamine, 100 U/mL penicillin, and 100 μg/mL streptomycin. H2O2 in the presence or absence of TTF were added, and cell viability was determined using a commercial colorimetric assay (Roche Applied Science, Germany) according to the manufacturer's instructions. This assay is based on the measurement of lactate dehydrogenase (LDH) activity released from the cytosol of damaged cells into the incubation medium. The absorbance was measured at 492 nm in a plate reader. The percentage of cytotoxicity was calculated according to the following equation, where the “ATriton-x treated cells” is the maximum releasable LDH in the cells:
Astrocytes were treated with different concentrations of TTF and cell death was determined 20 h later by the LDH method. The results are means±SEM of two experiments (n=10) and are shown in FIG. 2C. ***P<0.001, compared to untreated cells.

iNOS = iNOS transcripts in LPS-stimulated microglial cells (real-time PCR); type: cell-based, rat; settings: 20 μg/mL; LPS 4.5 ng/mL, 5 h
Experimental: (§1) RNA was extracted by the RNeasy Plus Mini Kit (Qiagen, Hilden, Germany) according to the manufacturer's instructions. Genomic DNA was removed from the RNA samples by using 50 units of RNase-free DNaseI at 37° C. for 1 h. RNA ([…]) was converted to cDNA using the Thermo Scientific Verso cDNA kit (Thermo Fisher Scientific Inc) following the manufacturer's protocol. The cDNA was used for quantitative real-time PCR amplification with TaqMan chemistry (Applied Biosystems) using Rat MMP9, TNFα, IL1β, iNOS, COX2 pre-designed TaqMan Gene Expression Assay from Applied Biosystems (Rn00579162_m1, Rn00562055_m1, Rn00580432_m1, Rn00561646_m1, Rn01483828_m1, respectively). […] All results from three technical replicates were normalized relative to α-Tubulin (Rn01532518.g1) and GAPDH (Rn01775763.g1), respectively, and expressed as relative expression ratios calculated (relative quantity, RQ) using the comparative method and based on the data that were created by the ABI PRISM 7700 Sequence Detection System (using version 1.6 software).
(§2) Procedure 23. Measurement of IL-1Beta, TNFalpha, iNOS, COX-2 and MMP-9 Transcripts in LPS-Activated Microglial Cells by Quantitative Real-Time PCR Analysis. • 1. […]
(§3) Microglial cells were treated with 20 μg/mL of achillolide A, followed by stimulation with LPS (4.5 ng/mL). […] The results are expressed as percentages relative to LPS-stimulated cells. […]

TNFα = TNFα transcripts in LPS-stimulated microglial cells (real-time PCR); type: cell-based, rat; settings: 20 μg/mL; LPS 4.5 ng/mL, 5 h
Experimental: as §1, §2, §3

IL-1β = IL-1β transcripts in LPS-stimulated microglial cells (real-time PCR); type: cell-based, rat; settings: 20 μg/mL; LPS 4.5 ng/mL, 5 h
Experimental: as §1, §2, §3

`COc1cc(-c2oc3cc(OC)c(OC)c(O)c3c(=O)c2O)ccc1O` [TTF, 3,5,4′-trihydroxy-6,7,3′-trimethoxyflavone] was tested, and the “cytotoxicity of the flavonoid by itself to astrocytes” value (astrocytes) was under 11%.
`C=C1CCC2=C(CO)C(=O)O[C@H]2/C=C(\C)[C@H](OC(C)=O)CC1=O` [achillolide A] was tested, and the “effect on LPS-induced iNOS transcript levels” value (iNOS) was “significantly inhibited”, the “effect on LPS-induced TNFα transcript levels” value (TNFα) was “significantly inhibited” and the “effect on LPS-induced IL-1β transcript levels” value (IL-1β) was “significantly inhibited”.
